Measured values published in US10711007B2, “Selective inhibitors of protein arginine methyltransferase 5 (PRMT5)” (Prelude Therapeutics, Incorporated, priority 2018, dated 2020).

How the values were obtained:
PRMT5/MEP50 complex = PRMT5/MEP50 complex (Homo sapiens (Human), UniProt O14744); assay: Biochemical assay: PRMT5/MEP50 methylation of histone H4 based AcH4-23, SPA readout; settings: PRMT5/MEP50 2.5 nM, 300 nM AcH4-23, 1 μM 3H-SAM
How it was run: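 PRMT5/MEP50 (2.5 nM final) preincubated with compound 20 min at 37°C alongside 300 nM AcH4-23 peptide. Reaction started with 1 µM [3H-methyl]-SAM, run 30 min at 37°C and quenched with guanidine HCl. Streptavidin SPA beads, scintillation counting; IC50 from four-parameter Hill fit.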

[1] = tested on: γ-globin expression in erythroid progenitors; assay: γ-globin induction by quantitative PCR in human erythroid progenitor cells; type: cell-based; settings: 9 days of treatment, N=1
Method: Compounds were dissolved in DMSO to make 10 mM stock solutions, and further diluted to make 1 mM and 0.1 mM stocks.
Human erythroid progenitor cells were generated from purified CD34+ cells from mobilized peripheral blood purchased from AllCells. CD34+ cells were cultured in StemSpan SFEM II (StemCell Technologies, Catalog #09605) supplemented with 100 ng/ml FLT3 ligand (R&D systems, Catalog #308-FK), 100 ng/ml SCF (R&D systems, Catalog #255-SC), 20 ng/ml IL-3 (R&D systems, Catalog #203-IL), 20 ng/ml IL-6 (R&D systems, Catalog #206-IL) for 6 days, then reseeded into the same medium supplemented with 20 ng/ml SCF, 5 ng/ml IL-3, 1 U/ml EPO (R&D systems, Catalog #287-TC), 2 μM dexamethasone (Sigma-Aldrich, Catalog # D4902), 1 μM β-estradiol (Sigma-Aldrich, Catalog # E2758). Cells were treated with 0.1 and 1 μM compound from Day 8 of differentiation. Media and compound were renewed every 3 days and cells were collected for RNA isolation after 9 days of treatment.
Assessment of γ-Globin Induction by Quantitative PCR
RNA was isolated using Quick-RNA Microprep kit (Zymo Research, Catalog # Z1050), cDNA was synthesized using qScript cDNA SuperMix (Quantabio, Catalog #95048). Quantitative PCR for y-globin was performed using PerfeCTa SYBR Green FastMix (Quantabio, Catalog #95071) on Bio-Rad CFX Connect Real-Time PCR Detection System. […]

[2] = tested on: sDMA (SmD3me2s) in human PBMCs; assay: Western blotting for sDMA in PHA-L activated human PBMCs; type: cell-based; settings: PBMC, 72 h, 3 days
Method: Compound Titration and Cell Culture:
Compounds were dissolved in DMSO to make 10 mM stock solutions. Human peripheral blood mononuclear cells (PBMCs) from healthy donors were purchased from AllCells (Emeryville, Calif.), maintained in RPMI 1640 (Corning Cellgro, Catalog #: 10-040-CV) supplemented with 10% v/v heat-inactivated FBS (GE Healthcare, Catalog #: SH30910.03), 2 mM L-Glutamine (Corning Cellgro, Catalog #25005CV) and 1× Penicillin-Streptomycin (Sigma-Aldrich, Catalog # P4333) in a CO2 incubator (5% CO2) at 37° C.
To Determine Enzyme Inhibition IC50 Values in Human PBMCs:
Freshly thawed cells were seeded at a density of 25×10^5 cells/ml in 2 ml of media in a 12 well plate. Cells were activated by addition of 5 μg/ml PHA-L (Sigma-Aldrich, Catalog # L4144) for 3 days. A series of 8-point, 3-fold dilutions of compound were dispensed into wells from 1 mM stock solution using TECAN digital dispenser (D300e) and concentration of DMSO was normalized to 0.1%. […]
Cells were harvested 3 days later, resuspended in 15 μL PBS, lysed in 4% SDS, and homogenized by passing through homogenizer column (Omega Biotek, Catalog #: HCR003). Total protein concentration were determined by BCA assay (ThermoFisher Scientific, Catalog #: 23225). […] SmD3me2s bands were quantified by ImageJ. […] IC50 values were calculated using Graphpad Prism ([Inhibitor] vs. normalized response-Variable slope).

Sequence of PRMT5/MEP50 complex (O14744 whole entry): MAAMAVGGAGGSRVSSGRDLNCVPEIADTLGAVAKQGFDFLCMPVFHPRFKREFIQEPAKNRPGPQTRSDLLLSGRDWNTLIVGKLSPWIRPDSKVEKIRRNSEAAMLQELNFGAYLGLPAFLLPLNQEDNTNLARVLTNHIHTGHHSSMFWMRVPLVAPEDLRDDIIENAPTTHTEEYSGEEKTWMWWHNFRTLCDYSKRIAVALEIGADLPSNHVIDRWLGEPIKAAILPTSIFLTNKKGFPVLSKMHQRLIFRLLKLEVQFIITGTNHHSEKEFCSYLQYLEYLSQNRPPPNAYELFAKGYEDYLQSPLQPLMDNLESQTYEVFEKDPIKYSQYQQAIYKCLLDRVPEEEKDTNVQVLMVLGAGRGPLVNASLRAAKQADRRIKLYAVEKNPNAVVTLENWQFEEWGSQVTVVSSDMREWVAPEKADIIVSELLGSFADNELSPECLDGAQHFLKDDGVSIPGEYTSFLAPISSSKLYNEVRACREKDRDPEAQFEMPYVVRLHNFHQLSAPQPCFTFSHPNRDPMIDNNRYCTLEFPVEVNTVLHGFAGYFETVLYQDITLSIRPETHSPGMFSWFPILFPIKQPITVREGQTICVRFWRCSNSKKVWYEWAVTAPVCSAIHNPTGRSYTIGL
Sequence of PRMT5/MEP50 complex (Q9BQA1 whole entry partner): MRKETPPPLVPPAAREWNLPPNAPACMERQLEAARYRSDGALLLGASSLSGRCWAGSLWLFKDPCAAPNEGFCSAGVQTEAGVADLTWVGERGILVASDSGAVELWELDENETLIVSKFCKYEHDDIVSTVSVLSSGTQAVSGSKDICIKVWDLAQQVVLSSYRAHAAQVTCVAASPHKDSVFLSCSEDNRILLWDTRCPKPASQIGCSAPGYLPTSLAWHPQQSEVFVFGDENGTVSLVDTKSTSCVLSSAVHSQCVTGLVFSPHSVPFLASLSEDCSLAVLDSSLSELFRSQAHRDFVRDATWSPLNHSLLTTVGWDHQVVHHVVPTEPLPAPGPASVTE

Nc1ncnc2c1ccn2[C@@H]1O[C@H]([C@@H]2OCc3ccc(Cl)cc32)[C@@H](O)[C@H]1O [Example 5, (2R,3R,4S,5S)-2-(4-amino-7H-pyrrolo[2,3-d]pyrimidin-7-yl)-5-((R)-6-chloro-1,3-dihydroisobenzofuran-1-yl)tetrahydrofuran-3,4-diol]
IC50 (PRMT5/MEP50 complex): 1 nM
increase in expression of γ-globin ([1]; 0.1 μM): 1.5 fold
increase in expression of γ-globin ([1]; 1 μM): 2 fold
IC50 [2]: 16 nM
